{
  "source": "BindingDB's records for doi:10.1016/j.bioorg.2011.05.001",
  "about": "(Medical University of Lodz, 2011)",
  "key": {"[1]": {"target": "Acetylcholinesterase (Electrophorus electricus, UniProt O42275)", "sequence (O42275 whole entry)": "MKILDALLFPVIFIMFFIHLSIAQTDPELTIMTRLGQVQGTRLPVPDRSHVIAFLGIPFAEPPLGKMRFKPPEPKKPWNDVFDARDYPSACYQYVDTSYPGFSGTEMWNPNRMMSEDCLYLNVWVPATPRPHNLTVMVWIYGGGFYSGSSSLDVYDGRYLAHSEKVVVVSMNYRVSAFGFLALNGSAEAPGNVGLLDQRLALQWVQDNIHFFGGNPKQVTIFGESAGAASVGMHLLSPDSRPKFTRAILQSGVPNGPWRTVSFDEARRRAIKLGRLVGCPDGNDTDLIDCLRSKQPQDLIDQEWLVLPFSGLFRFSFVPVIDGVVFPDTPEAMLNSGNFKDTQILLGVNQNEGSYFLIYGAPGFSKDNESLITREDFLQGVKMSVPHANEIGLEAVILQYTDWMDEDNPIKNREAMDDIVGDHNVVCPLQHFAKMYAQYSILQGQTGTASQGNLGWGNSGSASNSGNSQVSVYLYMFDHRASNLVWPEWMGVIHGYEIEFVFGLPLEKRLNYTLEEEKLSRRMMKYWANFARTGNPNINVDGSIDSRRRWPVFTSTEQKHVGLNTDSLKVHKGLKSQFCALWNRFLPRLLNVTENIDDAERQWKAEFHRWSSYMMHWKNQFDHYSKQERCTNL", "assay": "Enzyme Assay", "text": "(§1) Enzyme activity using acetylcholinesterase (AChE) and butyrylcholinesterase (BChE)."}, "[2]": {"target": "Carboxylic ester hydrolase (Equus caballus, UniProt Q9N1N9)", "sequence (Q9N1N9 whole entry)": "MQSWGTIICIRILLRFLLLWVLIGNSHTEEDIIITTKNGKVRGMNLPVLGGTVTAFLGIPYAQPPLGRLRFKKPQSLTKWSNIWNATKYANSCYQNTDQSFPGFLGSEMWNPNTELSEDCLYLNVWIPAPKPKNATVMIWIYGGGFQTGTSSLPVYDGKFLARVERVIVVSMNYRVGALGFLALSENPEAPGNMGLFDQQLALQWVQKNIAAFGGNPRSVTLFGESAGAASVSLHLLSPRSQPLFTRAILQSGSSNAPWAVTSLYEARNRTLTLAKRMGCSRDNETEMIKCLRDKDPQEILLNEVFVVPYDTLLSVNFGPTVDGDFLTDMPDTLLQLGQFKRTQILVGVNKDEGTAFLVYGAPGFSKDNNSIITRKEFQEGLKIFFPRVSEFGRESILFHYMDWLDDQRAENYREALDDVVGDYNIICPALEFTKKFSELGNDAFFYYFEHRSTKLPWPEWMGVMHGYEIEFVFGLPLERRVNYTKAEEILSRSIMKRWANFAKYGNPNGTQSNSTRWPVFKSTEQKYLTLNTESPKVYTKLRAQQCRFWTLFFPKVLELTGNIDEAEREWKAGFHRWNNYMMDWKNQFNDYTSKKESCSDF", "assay": "Enzyme Assay", "text": "as §1"}},
  "note": "Where a name gives a salt, the structure may show the parent alone.",
  "data": [
    {"compound": "NNc1ccc(C(=O)NCCCCCNc2c3c(nc4ccccc24)CCCC3)cn1", "note": "[Nicotinamide hydrochloride analog, 6b]", "values": [
      {"measurement": "IC50", "setting": "[1]", "result": 308, "unit": "nM"}
    ]},
    {"compound": "NNc1ccc(C(=O)NCCCCNc2c3c(nc4ccccc24)CCCC3)cn1", "note": "[Nicotinamide hydrochloride analog, 6a]", "values": [
      {"measurement": "IC50", "setting": "[1]", "result": 440, "unit": "nM"},
      {"measurement": "IC50", "setting": "[2]", "result": 1.45, "unit": "nM"}
    ]},
    {"compound": "NNc1ccc(C(=O)NCCCCCCCNc2c3c(nc4ccccc24)CCCC3)cn1", "note": "[Nicotinamide hydrochloride analog, 6c]", "values": [
      {"measurement": "IC50", "setting": "[1]", "result": 721, "unit": "nM"},
      {"measurement": "IC50", "setting": "[2]", "result": 1.13, "unit": "nM"}
    ]}
  ]
}
